# Measured values as given in patent US4753928A, “Process for obtaining sexual products from mammals suitable for natural or artificial fertilization” (INNOFINANCE Altalanos Innovacios Pengintezet, priority 1985, dated 1988).
# Where a SMILES comes first, the peptide text is derived from it. [ ]: non-standard residue; d: D form. pGlu = O=C1CC[C@@H](C(=O)O)N1
# Tests used:
# red fox males = experiment: Inducing spermiogenesis of red fox in seasonal oligospermia; assay type: in vivo, Vulpes vulpes
# Excerpt: We have attempted to induce spermiogenesis of red fox males kept in Zoo and being in seasonal oligospermia with the aim that pure bred silver and blue foxes kept under farming scale conditions might be inseminated for the production of high-quality hybrid furs. […] Between unoestrus of the various sub-species is a difference of several months (red fox: January; blue fox: April and May). Results of the test were compared to population being in seasonal unoestrus where the average quantity of ejaculate was 2 ml, density 3 and motility 50-60%. This was taken as physiological value. During the test 5 sexually mature red fox males of 8 kg average weight were treated in the month of April, twice weekly with 1, 5, 10, and 50 μg doses of D-Phe^6, Gln^8 -GnRH analogue for seven weeks. On the third week following commencement of treatment sperm sample was taken. In the sample sperm count was 70% of the physiological value, and the number of degenerated sperm was over 40%. Most of the deformed forms were of young formation (plasma droplet of neck and middle part). […] (Males were separated from females, thus they had no opportunity to copulate.) Sperm samples were put into groups according to quality, then put into deep freeze. […] By ejaculating the 5 foxes once each, 56 doses of sperms suitable for fertilizing were obtained. In this way industrial technology service was provided for the production of quality furs.
# potential breeding sows = experiment: Inducing first successful rutting of female piglets in puberty; assay type: in vivo, pigs; details: treated group of 30
# Protocol: For our tests 60 potential breeding sows were selected from a stock of 200 sows available at the farm, on the basis of best growing vigor and feed conversion determined by industrial technology. These animals were put into 2 random groups of 30 each. Both groups, also according to industrial technology, were kept without food and drink for 24 hours. Animals at time of selection were injected intramuscularly with D-Phe^6, Gln^8 -GnRH analogue diluted in normal saline solution, then injections were repeated with 20 μg doses each from the same analogue twice with 24 hours intervals. The first rutting animal appeared 5 days after selection both in the untreated control group and in the treated group. Both groups were kept in the same sty, air-space, under similar conditions for 26 days as permitted in the industrial farming technology. During this time 3 animals (10%) from the untreated control and 21 animals (70%) from the treated stock rutted successfully. […] In this test series exact timing of ovulation was not amongst aims since only a few boars were available. For this reason, aim of the treatment was "the first successful rutting" within 26 days. 10% of the sows in farrow was a result acceptable to industrial farming average, thus the increase to 70% as a result of treatment means a very significant economic advantage.
# infant female pigs = experiment: Inducing super-ovulation in infant pigs; assay type: in vivo; details: 10 μg twice daily 6 days i.m., 100 μg on 7th day, after 41 hours; 100-day old pigs
# Protocol: 20 100-day old infant female pigs were treated for 6 days, twice daily, with 10 μg doses each consisting of D-Phe^6 -Gln^8 -GnRH analogue administered intramuscularly. In the test half side of the ovaries in the control animals was removed and, by using the test method detailed in Example 3, the number of the Graf-follicles and of corpora lutea formed was compared. Occurrence of ovulation was detected by laparoscopy. […] Treatment of these animals produced similar results as described in Examples 1 to 3.
# female lion = assay type: in vivo
# Protocol: In our process an intact, fertile female lion belonging to a Zoo was treated, a lioness of 200 kg body weight, which has given litter five times in its life already. Treatments took place twice in every 3 weeks, using D-[…], […] -GnRH analogue. Treatment was timed in such a way that a 50 μg dose was follwed by a 500 μg dose, than a 3-week pause followed. Treatment was carried out with the already mentioned three weeks interval from commencement of oestrus (month of April) until 50 days following end of oestrus typical of the species (August).
smiles,measurement,setting,value
"CC(C)C[C@H](NC(=O)[C@@H](Cc1ccccc1)NC(=O)[C@H](Cc1ccc(O)cc1)NC(=O)[C@H](CO)NC(=O)[C@H](Cc1c[nH]c2ccccc12)NC(=O)[C@H](Cc1c[nH]cn1)NC(=O)[C@@H]1CCC(=O)N1)C(=O)N[C@@H](CCC(N)=O)C(=O)N1CCC[C@H]1C(=O)NCC(N)=O [D-Phe^6, Gln^8 -GnRH analogue, D-Phe^6, Gln^8 -GnRH] ([pGlu]HWSY[dF]LQPG-NH2)",doses of sperms suitable for fertilizing obtained,red fox males; 5 foxes ejaculated once each,56
same,density of ejaculate,red fox males; 7 weeks,3
same,sperm motility,"red fox males; 7 weeks, physiological value 50-60%",65%
same,motility after remelting,red fox males; after dilution and deep freeze at -196° C.,45%
same,degenerated sperm,red fox males; third week,over 40%
same,sperm count relative to the physiological value,"red fox males; third week, twice weekly 1, 5, 10 and 50 μg doses",70%
same,animals that rutted successfully within 26 days,"potential breeding sows; three i.m. injections at 24 h intervals, 20 μg",21 animals
same,share of animals that rutted successfully within 26 days,potential breeding sows; untreated control 10%,70%
same,ovulations,infant female pigs,15-36
same,pregnancy during treatment (contraception),"female lion; 50 μg followed by 500 μg, every 3 weeks, April to August, regular copulation",did not become pregnant
same,behaviour and appearance during treatment,female lion; in vivo,showed no irregularity either in its behaviour or in its appearance
